Consider 13 compounds from patent US9611251B2, “Substituted piperidine compounds and their use as orexin receptor modulators” (Janssen Pharmaceutica NV, priority 2013, dated 2017).

Where only a bound is given, the exact number is not on record here.

One assay has as its target rat orexin 1 receptor (Rattus norvegicus, UniProt P56718). Briefly: Rat orexin 1 receptor radioligand binding. Particulars: rat orexin 1 receptor radioligand binding; averages of 2-20 runs; read-out: rOX1 Ki. The method, then:
(§1) Data are analyzed using pc-Sandy macro and graphed on Graphpad Prism 5. For analysis, each concentration point is averaged from triplicate values and the averaged values are plotted on Graphpad Prism. The IC50 was determined by applying the following equation (GraphPad Prism 5.0, SanDiego) for one site competition where X=log (concentration) and Y=specific binding. Top denotes the total [^3H]-(1-(5-(2-fluoro-phenyl)-2-methyl-thiazol-4-yl)-1-((S)-2-(5-phenyl-(1,3,4)oxadiazol-2-ylmethyl)-pyrrolidin-1-yl)-methanone) binding, bottom denotes the nonspecific [^3H]-(1-(5-(2-fluoro-phenyl)-2-methyl-thiazol-4-yl)-1-((S)-2-(5-phenyl-(1,3,4)oxadiazol-2-ylmethyl)-pyrrolidin-1-yl)-methanone) binding. Graphpad Prism calculates Ki value from IC50 and the pre-determined Kd values for [^3H]-(1-(5-(2-fluoro-phenyl)-2-methyl-thiazol-4-yl)-1-((S)-2-(5-phenyl-(1,3,4)oxadiazol-2-ylmethyl)-pyrrolidin-1-yl)-methanone) and [3H]-EMPA. The Ki for each compound is then uploaded into 3DX. Each run comprises individual compounds in triplicate.
(§2) Rat and Human Orexin 1 Receptor Radioligand Binding Studies
After centrifugation (2K×G, 5 min at 4° C.), the supernatant was aspirated and the pellets frozen and stored at −80° C. […] Each cell pellet from a 15 cm plate was resuspended in 10 mL, stored on ice, and homogenized for 45 sec prior to addition to the reactions. Competition binding experiments in 96 well polypropylene plates were performed using [^3H]-(1-(5-(2-fluoro-phenyl)-2-methyl-thiazol-4-yl)-1-((S)-2-(5-phenyl-(1,3,4)oxadiazol-2-ylmethyl)-pyrrolidin-1-yl)-methanone) (Moraveck Corporation, specific activity=35.3 Ci/mmol), diluted to a 10 nM concentration in PBS (4 nM final). […] The final concentration of DMSO in the reactions is equal to or less than 0.1%. Total and nonspecific binding was determined in the absence and presence of 10 μM almorexant. The total volume of each reaction is 200 μL (20 μL of diluted compounds, 80 μL of [^3H]-(1-(5-(2-fluoro-phenyl)-2-methyl-thiazol-4-yl)-1-((S)-2-(5-phenyl-(1,3,4)oxadiazol-2-ylmethyl)-pyrrolidin-1-yl)-methanone) diluted in PBS and 100 μL of the cell suspension). […] The plates were washed 3 times by aspirating 30 ml PBS through the plates. Plates were dried in 55° C. oven for 60 min, scintillation fluid was added, and the radioactivity was counted on a Topcount (Packard).

The target in the next assay is human orexin 1 receptor (Homo sapiens, UniProt O43613). The assay is described as follows: Human orexin 1 receptor radioligand binding. Particulars: human orexin 1 receptor radioligand binding; averages of 2-20 runs; read-out: hOX1 Ki. The method, then:
The in vitro affinity of the compounds of the invention for the rat/human orexin 1 and human orexin 2 receptors was determined by competitive radioligand binding using [^3H](1-(5-(2-fluoro-phenyl)-2-methyl-thiazol-4-yl)-1-((S)-2-(5-phenyl-(1,3,4)oxadiazol-2-ylmethyl)-pyrrolidin-1-yl)-methanone) (Langmead et al., 2004) and [^3H]EMPA (n-ethyl-2[96-methoxypyridin-3-yl)-(toluene-2-sulfonyl)-amino]-N-pyridin-3-ylmethyl acetamide), respectively (Langmead et al., 2004, British Journal of Pharmacology 141:340-346; Malherbe et al., 2004, British Journal of Pharmacology 156:1326-41).
as §1, §2
Human Embryonic Kidney 293 cells (HEK293) stably expressing rat orexin 1 receptor (Genebank accession number NM_001525) or Chinese ovary cells (CHO) stably expressing human orexin 1 receptor (Genebank accession number NM_001526) were grown to confluency in DMEM (Hyclone, cat #SH30022), 10% FBS, 1×Pen/Strep, 1× sodium pyruvate, 10 mM HEPES, 600 μg/mL G418 and DMEM/F12 (Gibco, Cat #11039), 10% FBS, 1×Pen/Strep, 600 μg/mL G418 media, respectively on 150 cm^2 tissue culture plates, washed with 5 mM EDTA in PBS (HyClone Dulbecco's Phosphate Buffered Saline 1× with Calcium and Magnesium, Cat #SH30264.01, hereafter referred to simply as PBS) and scraped into 50 ml tubes. After centrifugation (2K×G, 5 min at 4° C.), the supernatant was aspirated and the pellets frozen and stored at −80° C. Cells were resuspended in PBS in the presence of 1 tablet of protease inhibitor cocktail (Roche, Cat. #11836145001) per 50 mL. Each cell pellet from a 15 cm plate was resuspended in 10 mL, stored on ice, and homogenized for 45 sec prior to addition to the reactions. Competition binding experiments in 96 well polypropylene plates were performed using [^3H]-(1-(5-(2-fluoro-phenyl)-2-methyl-thiazol-4-yl)-1-((S)-2-(5-phenyl-(1,3,4)oxadiazol-2-ylmethyl)-pyrrolidin-1-yl)-methanone) (Moraveck Corporation, specific activity=35.3 Ci/mmol), diluted to a 10 nM concentration in PBS (4 nM final). […] The final concentration of DMSO in the reactions is equal to or less than 0.1%. Total and nonspecific binding was determined in the absence and presence of 10 μM almorexant. The total volume of each reaction is 200 μL (20 μL of diluted compounds, 80 μL of [^3H]-(1-(5-(2-fluoro-phenyl)-2-methyl-thiazol-4-yl)-1-((S)-2-(5-phenyl-(1,3,4)oxadiazol-2-ylmethyl)-pyrrolidin-1-yl)-methanone) diluted in PBS and 100 μL of the cell suspension). Reactions were run for 60 min at room temperature and terminated by filtration through GF/C filter plates (PerkinElmer, Cat. #6005174) presoaked in 0.3% polyethylenimine using the cell harvester (PerkinElmer Filtermate). The plates were washed 3 times by aspirating 30 ml PBS through the plates. Plates were dried in 55° C. oven for 60 min, scintillation fluid was added, and the radioactivity was counted on a Topcount (Packard).

Another assay has as its target human orexin 2 receptor (Homo sapiens (Human), UniProt O43614). Briefly: Human orexin 2 receptor radioligand binding ([3H]-EMPA). Particulars: averages of 2-20 runs, read-out: hOX2 Ki. As to the method: as §1
Human Orexin 2 Receptor Radioligand Binding Studies
HEK293 stably expressing human orexin 2 receptor (Genebank accession number NM_001526) were grown to confluency in DMEM (Hyclone, cat #SH30022), 10% FBS, 1×Pen/Strep, 1× NaPyruvate, 10 mM HEPES, 600 ug/ml G418 media on 150 cm^2 tissue culture plates, washed with 5 mM EDTA in PBS (HyClone Dulbecco's Phosphate Buffered Saline 1× with Calcium and Magnesium, Cat #SH30264.01, hereafter referred to simply as PBS) and scraped into 50 ml tubes. After centrifugation (2K×G, 5 min at 4° C.), the supernatant was aspirated and the pellets frozen and stored at −80° C. […] Each cell pellet from a 15 cm plate was resuspended in 10 mL, stored on ice, and homogenized for 45 sec just prior to addition to the reactions. Competition binding experiments in 96 well polypropylene plates were performed using [^3H]-EMPA (Moraveck Corporation, specific activity=29.6 Ci/mmol), diluted to a 5 nM concentration in PBS (2 nM final concentration). […] The final concentration of DMSO in the reactions is equal to or less than 0.1%. Total and nonspecific binding was determined in the absence and presence of 10 μM almorexant. The total volume of each reaction is 200 μL (20 μL of diluted compounds, 80 μL of [^3H]-EMPA diluted in PBS and 100 μL of the cell suspension). […] The plates were washed 3 times by aspirating 30 ml PBS through the plates. Plates were dried in 55° C. oven for 60 min, scintillation fluid was added, and the radioactivity was counted on a Topcount (Packard).

Chain of human orexin 2 receptor (O43614 whole entry): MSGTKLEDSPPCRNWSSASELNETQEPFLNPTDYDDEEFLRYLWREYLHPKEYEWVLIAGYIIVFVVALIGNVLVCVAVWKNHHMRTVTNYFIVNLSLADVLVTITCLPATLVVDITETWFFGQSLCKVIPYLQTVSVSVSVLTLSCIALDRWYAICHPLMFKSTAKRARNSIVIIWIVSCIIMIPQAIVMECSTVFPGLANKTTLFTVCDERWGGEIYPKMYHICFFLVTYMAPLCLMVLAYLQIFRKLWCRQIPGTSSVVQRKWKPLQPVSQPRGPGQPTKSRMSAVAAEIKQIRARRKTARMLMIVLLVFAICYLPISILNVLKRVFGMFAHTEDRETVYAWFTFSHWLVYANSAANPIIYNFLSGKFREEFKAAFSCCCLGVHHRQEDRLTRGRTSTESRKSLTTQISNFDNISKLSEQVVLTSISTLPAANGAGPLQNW

In general, Ki refers to the dissociation constant of the complex between target and ligand, obtained from inhibition or displacement. `Cc1ccc(C(=O)N2CCC[C@@H](Nc3ccc(C(F)(F)F)cn3)[C@@H]2C)c(-n2nccn2)n1` [Example 98, (6-methyl-2-(2H-1,2,3-triazol-2-yl)pyridin-3-yl)((2S,3R)-2-methyl-3-((5-(trifluoromethyl)pyridin-2-yl)amino)piperidin-1-yl)methanone]: the Ki came to 0.024 µM on rat orexin 1 receptor and 0.021 µM at human orexin 1 receptor.
In the case of `Cc1cnc(-n2nccn2)c(C(=O)N2CCC[C@@H](Oc3ncc(C(F)(F)F)cn3)[C@@H]2C)c1` [Example 176, (5-methyl-2-(2H-1,2,3-triazol-2-yl)pyridin-3-yl)((2S,3R)-2-methyl-3-((5-(trifluoromethyl)pyrimidin-2-yl)oxy)piperidin-1-yl)methanone], the Ki is more than 10 µM at human orexin 2 receptor and 0.374 µM at rat orexin 1 receptor.
The like results for `C[C@H]1[C@H](Oc2cnc(C(F)(F)F)cn2)CCCN1C(=O)c1cccnc1-n1nccn1` [Example 148, (2-(2H-1,2,3-triazol-2-yl)pyridin-3-yl)((2S,3R)-2-methyl-3-((5-(trifluoromethyl)pyrazin-2-yl)oxy)piperidin-1-yl)methanone] were, in that order, more than 10 µM and 3.4 µM.
The like results for `COc1ccc(C(=O)N2CCC[C@@H](Nc3ncc(Cl)cn3)[C@@H]2C)c(-n2nccn2)c1` (relative stereo) [Example 185, ((2 S*,3R*)-3-((5-chloropyrimidin-2-yl)amino)-2-methylpiperidin-1-yl)(4-methoxy-2-(2H-1,2,3-triazol-2-yl)phenyl)methanone] were, in that order, 8.6 µM and 0.259 µM.
The like results for `COc1ccc(C(=O)N2CCC[C@@H](Oc3cnc(C(F)(F)F)cn3)[C@@H]2C)c(-n2nccn2)c1` [Example 172, (4-methoxy-2-(2H-1,2,3-triazol-2-yl)phenyl)((2S,3R)-2-methyl-3-((5-(trifluoromethyl)pyrazin-2-yl)oxy)piperidin-1-yl)methanone] were, in that order, more than 10 µM and 0.447 µM.
Regarding `C[C@H]1[C@H](Nc2ncc(C(F)(F)F)cn2)CCCN1C(=O)c1ccc(F)cc1-c1ncco1` (relative stereo) [Example 205, (4-fluoro-2-(oxazol-2-yl)phenyl)((2S*,3R*)-2-methyl-3-((5-(trifluoromethyl)pyrimidin-2-yl)amino)piperidin-1-yl)methanone], the Ki turned out to be 5.8 µM on human orexin 2 receptor and 0.411 µM on rat orexin 1 receptor.
Turning to `COc1ccc(C(=O)N2CCC[C@@H](Oc3ncc(C(F)(F)F)cn3)[C@@H]2C)c(-n2nccn2)c1` [Example 174, (4-methoxy-2-(2H-1,2,3-triazol-2-yl)phenyl)((2S,3R)-2-methyl-3-((5-(trifluoromethyl)pyrimidin-2-yl)oxy)piperidin-1-yl)methanone], the Ki on human orexin 2 receptor was more than 10 µM; on rat orexin 1 receptor it was 0.504 µM.
Turning to `COc1ccc(C(=O)N2CCC[C@@H](Nc3cnc(Cl)cn3)[C@@H]2C)c(-n2nccn2)c1` (relative stereo) [Example 186, ((2S*,3R*)-3-((5-chloropyrazin-2-yl)amino)-2-methylpiperidin-1-yl)(4-methoxy-2-(2H-1,2,3-triazol-2-yl)phenyl)methanone], the results for the Ki on human orexin 2 receptor and at rat orexin 1 receptor were 9.4 µM and 0.278 µM, respectively.
With `COc1ccc(C(=O)N2CCC[C@@H](Nc3ncc(C(F)(F)F)cn3)[C@@H]2C)c(Cl)n1` (relative stereo) [Example 201, (2-chloro-6-methoxypyridin-3-yl)((2S*,3R*)-2-methyl-3-((5-(trifluoromethyl)pyrimidin-2-yl)amino)piperidin-1-yl)methanone], the Ki on human orexin 2 receptor and on rat orexin 1 receptor was more than 10 µM each time.
On to `COc1ccc(C(=O)N2CCC[C@@H](Nc3ccc(C(F)(F)F)cn3)[C@@H]2C)c(Cl)n1` (relative stereo) [Example 193, (2-chloro-6-methoxypyridin-3-yl)((2S*,3R*)-2-methyl-3-((5-(trifluoromethyl)pyridin-2-yl)amino)piperidin-1-yl)methanone], for which the Ki on human orexin 2 receptor is more than 10 µM; on rat orexin 1 receptor, 1.1 µM.
Regarding `C[C@H]1[C@H](Oc2ccc(C(F)(F)F)cn2)CCCN1C(=O)c1cccnc1-n1nccn1` [Example 153, (2-(2H-1,2,3-triazol-2-yl)pyridin-3-yl)((2S,3R)-2-methyl-3-((5-(trifluoromethyl)pyridin-2-yl)oxy)piperidin-1-yl)methanone], the Ki at human orexin 2 receptor was more than 10 µM; at rat orexin 1 receptor, 0.353 µM.
The like results for `C[C@H]1[C@H](Oc2cnc(C(F)(F)F)cn2)CCCN1C(=O)c1nccnc1-c1ccccc1` [Example 173, ((2S,3R)-2-methyl-3-((5-(trifluoromethyl)pyrazin-2-yl)oxy)piperidin-1-yl)(3-phenylpyrazin-2-yl)methanone] were, in that order, 8.2 µM and 0.423 µM.
The like results for `C[C@H]1[C@H](Oc2ncc(C(F)(F)F)cn2)CCCN1C(=O)c1nccnc1-c1ccccc1` [Example 178, ((2S,3R)-2-methyl-3-((5-(trifluoromethyl)pyrimidin-2-yl)oxy)piperidin-1-yl)(3-phenylpyrazin-2-yl)methanone] were, in that order, more than 10 µM and 0.679 µM.
